From paper PMC5218480 (PLoS ONE, 2017) come the findings set out here.

Each structure is given as a SMILES string.

For this assay, the system named is MV-4-11 cells. The experiment in a line: Gene expression microarray analysis (Affymetrix PrimeView) and GSEA. The following applies: ProbeSet 11716891_at; LIST B. Also noted: RFU PODN (11730768_x_at) / Fold change /veh PODN (11730768_x_at) / RFU LINC00158 (11744669_a_at) / Fold change /veh LINC00158 (11744669_a_at) / RFU DUSP10 (11751237_a_at) / Fold change /veh DUSP10 (11751237_a_at) / RFU ID3 (11757404_x_at) / Fold change /veh ID3 (11757404_x_at) / RFU PLEKHG5 (11737974_s_at) / Fold change /veh PLEKHG5 (11737974_s_at) / RFU LRRC4B (11730491_at) / Fold change /veh LRRC4B (11730491_at) / RFU GIMAP4 (11747438_a_at) / Fold change /veh GIMAP4 (11747438_a_at) / RFU KRT8 (11758183_x_at) / Fold change /veh KRT8 (11758183_x_at) / RFU CNN1 (11734310_a_at) / Fold change /veh CNN1 (11734310_a_at) / RFU VPS37D (11726825_at) / Fold change /veh VPS37D (11726825_at) / RFU C10orf10 (11716522_x_at) / Fold change /veh C10orf10 (11716522_x_at) / RFU KIR2DL2 /// KIR2DL4 /// KIR2DL5A /// KIR2DL5B /// KIR2DS1 /// KIR2DS2 /// KIR2DS3 /// KIR2DS4 /// KIR3DL3 /// KIR3DL3 /// KIR3DS1 (11738374_at) / Fold change /veh KIR2DL2 /// KIR2DL4 /// KIR2DL5A /// KIR2DL5B /// KIR2DS1 /// KIR2DS2 /// KIR2DS3 /// KIR2DS4 /// KIR3DL3 /// KIR3DL3 /// KIR3DS1 (11738374_at) / RFU C1QL1 (11718748_at) / Fold change /veh C1QL1 (11718748_at) / RFU TMPRSS4 (11747572_a_at) / Fold change /veh TMPRSS4 (11747572_a_at) / RFU HAMP (11756126_x_at) / Fold change /veh HAMP (11756126_x_at) / RFU RNFT2 (11725882_a_at) / Fold change /veh RNFT2 (11725882_a_at) / RFU NR4A2 (11747474_a_at) / Fold change /veh NR4A2 (11747474_a_at) / RFU ABCC12 (11746883_a_at) / Fold change /veh ABCC12 (11746883_a_at) / RFU TMEM136 (11760407_x_at) / Fold change /veh TMEM136 (11760407_x_at) / RFU CLDN22 /// WWC2 (11732394_at) / Fold change /veh CLDN22 /// WWC2 (11732394_at) / RFU HLA-DPB1 (11760878_x_at) / Fold change /veh HLA-DPB1 (11760878_x_at) / RFU SPINT1 (11716480_a_at) / Fold change /veh SPINT1 (11716480_a_at) / RFU GAP43 (11754022_s_at) / Fold change /veh GAP43 (11754022_s_at) / RFU A4GNT (11735810_at) / Fold change /veh A4GNT (11735810_at) / RFU PRB3 (11715151_x_at) / Fold change /veh PRB3 (11715151_x_at) / RFU TUBB4B (11761932_at) / Fold change /veh TUBB4B (11761932_at) / RFU CAPN14 (11732068_a_at) / Fold change /veh CAPN14 (11732068_a_at) / RFU TMCC2 (11721928_a_at) / Fold change /veh TMCC2 (11721928_a_at) / RFU IRGQ (11745062_a_at) / Fold change /veh IRGQ (11745062_a_at) / RFU FAM174B (11720279_a_at) / Fold change /veh FAM174B (11720279_a_at) / RFU TMPRSS4 (11748680_a_at) / Fold change /veh TMPRSS4 (11748680_a_at) / RFU FAM212B (11763350_a_at) / Fold change /veh FAM212B (11763350_a_at) / RFU PLEKHG5 (11743358_a_at) / Fold change /veh PLEKHG5 (11743358_a_at) / RFU ZSCAN30 (11745921_a_at) / Fold change /veh ZSCAN30 (11745921_a_at) / RFU CMKLR1 (11741424_a_at) / Fold change /veh CMKLR1 (11741424_a_at) / RFU LOC101060620 /// MAPK8IP1 (11723275_at) / Fold change /veh LOC101060620 /// MAPK8IP1 (11723275_at) / RFU SPTSSB (11747773_x_at) / Fold change /veh SPTSSB (11747773_x_at) / RFU PRSS12 (11739890_at) / Fold change /veh PRSS12 (11739890_at) / RFU BIN1 (11741810_x_at) / Fold change /veh BIN1 (11741810_x_at) / RFU WNT11 (11732464_a_at) / Fold change /veh WNT11 (11732464_a_at) / RFU C10orf10 (11716521_a_at) / Fold change /veh C10orf10 (11716521_a_at) / RFU C5orf56 (11738089_at) / Fold change /veh C5orf56 (11738089_at) / RFU CYB561 (11721691_x_at) / Fold change /veh CYB561 (11721691_x_at) / RFU ANKRD19P (11752326_a_at) / Fold change /veh ANKRD19P (11752326_a_at) / RFU OR2T12 /// OR2T33 /// OR2T8 (11738714_s_at) / Fold change /veh OR2T12 /// OR2T33 /// OR2T8 (11738714_s_at) / RFU VCAN (11748164_a_at) / Fold change /veh VCAN (11748164_a_at) / RFU JSRP1 (11732532_at) / Fold change /veh JSRP1 (11732532_at) / RFU KRTAP10-11 (11738290_x_at) / Fold change /veh KRTAP10-11 (11738290_x_at) / RFU MYO3A (11730013_a_at) / Fold change /veh MYO3A (11730013_a_at) / RFU EBF3 (11725865_a_at) / Fold change /veh EBF3 (11725865_a_at) / RFU CAMK2N1 (11719241_x_at) / Fold change /veh CAMK2N1 (11719241_x_at) / RFU C5orf56 (11738088_a_at) / Fold change /veh C5orf56 (11738088_a_at) / RFU OLFML3 (11715873_a_at) / Fold change /veh OLFML3 (11715873_a_at) / RFU LOC100653217 /// NTM (11731650_a_at) / Fold change /veh LOC100653217 /// NTM (11731650_a_at) / RFU MAPK11 (11762145_a_at) / Fold change /veh MAPK11 (11762145_a_at) / RFU FIZ1 (11724087_x_at) / Fold change /veh FIZ1 (11724087_x_at) / RFU OASL (11726364_x_at) / Fold change /veh OASL (11726364_x_at) / RFU SOX15 (11748057_x_at) / Fold change /veh SOX15 (11748057_x_at) / RFU CD79A (11719716_a_at) / Fold change /veh CD79A (11719716_a_at) / RFU HIST1H1D (11736915_at) / Fold change /veh HIST1H1D (11736915_at) / RFU CASKIN2 (11723855_a_at) / Fold change /veh CASKIN2 (11723855_a_at) / RFU LOC730098 (11760151_x_at) / Fold change /veh LOC730098 (11760151_x_at) / RFU OR4N2 (11742367_at) / Fold change /veh OR4N2 (11742367_at) / RFU PRRT2 (11749266_a_at) / Fold change /veh PRRT2 (11749266_a_at) / RFU SNX32 (11753110_a_at) / Fold change /veh SNX32 (11753110_a_at) / RFU CDHR5 (11726645_a_at) / Fold change /veh CDHR5 (11726645_a_at) / RFU RCAN1 (11760418_a_at) / Fold change /veh RCAN1 (11760418_a_at) / RFU FAM167A (11723789_a_at) / Fold change /veh FAM167A (11723789_a_at) / RFU FAM26E (11764081_at) / Fold change /veh FAM26E (11764081_at) / RFU ISYNA1 (11749810_s_at) / Fold change /veh ISYNA1 (11749810_s_at) / RFU ACY1 (11761880_at) / Fold change /veh ACY1 (11761880_at) / RFU 11764098_at / Fold change /veh 11764098_at / RFU SAMD14 (11745864_x_at) / Fold change /veh SAMD14 (11745864_x_at) / RFU NPB (11741838_a_at) / Fold change /veh NPB (11741838_a_at) / RFU TMPRSS6 (11731388_a_at) / Fold change /veh TMPRSS6 (11731388_a_at) / RFU KRTAP10-2 (11738614_at) / Fold change /veh KRTAP10-2 (11738614_at) / RFU ARHGAP8 /// PRR5-ARHGAP8 (11727945_x_at) / Fold change /veh ARHGAP8 /// PRR5-ARHGAP8 (11727945_x_at) / RFU KRTAP5-7 /// NADSYN1 (11734609_at) / Fold change /veh KRTAP5-7 /// NADSYN1 (11734609_at) / RFU RASL12 (11751679_a_at) / Fold change /veh RASL12 (11751679_a_at) / RFU CDKN2B (11736163_a_at) / Fold change /veh CDKN2B (11736163_a_at) / RFU PRF1 (11729649_at) / Fold change /veh PRF1 (11729649_at) / RFU, ZNF638 /// ZNF638-IT1 / Fold change vs veh, ZNF638 /// ZNF638-IT1 / RFU, PANK3 / Fold change vs veh, PANK3 / RFU, SH3YL1 / Fold change vs veh, SH3YL1 / RFU, ZEB2 / Fold change vs veh, ZEB2 / RFU, NRIP1 / Fold change vs veh, NRIP1 / RFU, PTTG1IP / Fold change vs veh, PTTG1IP / RFU, CAPN2 / Fold change vs veh, CAPN2 / RFU, MED14 / Fold change vs veh, MED14 / RFU, SNORA58 / Fold change vs veh, SNORA58 / RFU, C1orf63 / Fold change vs veh, C1orf63 / RFU, LRRFIP1 / Fold change vs veh, LRRFIP1 / RFU, NDUFAF7 / Fold change vs veh, NDUFAF7 / RFU, SLC12A2 / Fold change vs veh, SLC12A2 / RFU, IBTK / Fold change vs veh, IBTK / RFU, ESF1 / Fold change vs veh, ESF1 / Fold change vs veh, TMEM50B / RFU, TAOK1 / Fold change vs veh, TAOK1 / RFU, ACBD3 / Fold change vs veh, ACBD3 / RFU, TMA16 / Fold change vs veh, TMA16 / RFU, RWDD3 / Fold change vs veh, RWDD3 / RFU, BCAT1 / Fold change vs veh, BCAT1 / RFU, EDEM3 / Fold change vs veh, EDEM3 / RFU, TMEM33 / Fold change vs veh, TMEM33 / RFU, WDR75 / Fold change vs veh, WDR75 / RFU, AHCTF1 / Fold change vs veh, AHCTF1 / RFU, TFRC / Fold change vs veh, TFRC / RFU, ZDHHC17 / Fold change vs veh, ZDHHC17 / RFU, NOM1 / Fold change vs veh, NOM1 / RFU, ARL8B / Fold change vs veh, ARL8B / RFU, ZBTB11 / Fold change vs veh, ZBTB11 / RFU, TAMM41 / Fold change vs veh, TAMM41 / RFU, KIAA1704 /// LOC100996395 / Fold change vs veh, KIAA1704 /// LOC100996395 / RFU, ING1 / Fold change vs veh, ING1 / RFU, TRMT61B / Fold change vs veh, TRMT61B / RFU, FUBP3 / Fold change vs veh, FUBP3 / RFU, TP53 / Fold change vs veh, TP53 / RFU, TNKS2 / Fold change vs veh, TNKS2 / RFU, ZFP14 / Fold change vs veh, ZFP14 / RFU, ACTR2 / Fold change vs veh, ACTR2 / RFU, PPP3R1 / Fold change vs veh, PPP3R1 / RFU, PIK3R1 / Fold change vs veh, PIK3R1 / RFU, HNRNPA1 / Fold change vs veh, HNRNPA1 / RFU, RNF170 / Fold change vs veh, RNF170 / RFU, ZNF28 / Fold change vs veh, ZNF28 / RFU, RNGTT / Fold change vs veh, RNGTT / RFU, OGT / Fold change vs veh, OGT / RFU, BRD1 / Fold change vs veh, BRD1 / RFU, MARS / Fold change vs veh, MARS / RFU, ZNF655 / Fold change vs veh, ZNF655 / RFU, FAHD1 / Fold change vs veh, FAHD1 / RFU, BDP1 / Fold change vs veh, BDP1 / RFU, LRRCC1 / Fold change vs veh, LRRCC1 / RFU, ARID1A / Fold change vs veh, ARID1A / RFU, ZNF146 / Fold change vs veh, ZNF146 / RFU, ZNF330 / Fold change vs veh, ZNF330 / RFU, GPN3 / Fold change vs veh, GPN3 / RFU, C9orf123 / Fold change vs veh, C9orf123 / RFU, N4BP2L2 / Fold change vs veh, N4BP2L2 / RFU, ARFIP1 / Fold change vs veh, ARFIP1 / RFU, FAM179B / Fold change vs veh, FAM179B / RFU, BCL10 / Fold change vs veh, BCL10 / RFU, UHRF1BP1L / Fold change vs veh, UHRF1BP1L / RFU, BET1 / Fold change vs veh, BET1 / RFU, CNOT2 / Fold change vs veh, CNOT2 / RFU, ZNF268 / Fold change vs veh, ZNF268 / Fold change vs veh, ZNF507 / RFU, DGCR2 / Fold change vs veh, DGCR2 / RFU, WDSUB1 / Fold change vs veh, WDSUB1 / Fold change vs veh, HSP90B1 /// MIR3652 / RFU, ADSS / Fold change vs veh, ADSS / RFU, GK / Fold change vs veh, GK / RFU, ZNF148 / Fold change vs veh, ZNF148 / RFU, TAF9 / Fold change vs veh, TAF9 / RFU, SLC1A5 / Fold change vs veh, SLC1A5 / RFU, SLMO2 / Fold change vs veh, SLMO2 / RFU, ABCC4 / Fold change vs veh, ABCC4 / RFU, LOC101060439 /// RAP1B / Fold change vs veh, LOC101060439 /// RAP1B / RFU, RFX7 / Fold change vs veh, RFX7 / RFU, GTPBP10 / Fold change vs veh, GTPBP10 / RFU, CNEP1R1 / Fold change vs veh, CNEP1R1 / RFU, BIVM-ERCC5 /// ERCC5 / Fold change vs veh, BIVM-ERCC5 /// ERCC5 / RFU, ILF3 / Fold change vs veh, ILF3 / RFU 11762660_at / Fold change /veh 11762660_at / RFU VCAN (11757783_s_at) / Fold change /veh VCAN (11757783_s_at) / RFU DDX43 (11728927_at) / Fold change /veh DDX43 (11728927_at) / RFU KRT8 (11758188_x_at) / Fold change /veh KRT8 (11758188_x_at) / RFU NKD1 (11759106_at) / Fold change /veh NKD1 (11759106_at) / RFU SRD5A1 (11742802_a_at) / Fold change /veh SRD5A1 (11742802_a_at) / RFU TPSAB1 /// TPSB2 (11721975_s_at) / Fold change /veh TPSAB1 /// TPSB2 (11721975_s_at) / RFU GSTM3 (11746129_a_at) / Fold change /veh GSTM3 (11746129_a_at) / RFU IL23R (11737362_x_at) / Fold change /veh IL23R (11737362_x_at) / RFU TMEM51 (11727254_a_at) / Fold change /veh TMEM51 (11727254_a_at) / RFU PIWIL2 (11732686_x_at) / Fold change /veh PIWIL2 (11732686_x_at) / RFU ORM1 (11744905_x_at) / Fold change /veh ORM1 (11744905_x_at) / RFU CCDC152 (11743942_at) / Fold change /veh CCDC152 (11743942_at) / RFU ECM1 (11717891_a_at) / Fold change /veh ECM1 (11717891_a_at) / RFU IL23R (11748794_a_at) / Fold change /veh IL23R (11748794_a_at) / RFU TNFAIP8L3 (11732012_x_at) / Fold change /veh TNFAIP8L3 (11732012_x_at) / RFU MBOAT4 (11741988_at) / Fold change /veh MBOAT4 (11741988_at) / RFU 11764193_at / Fold change /veh 11764193_at / RFU TMEM53 (11763286_at) / Fold change /veh TMEM53 (11763286_at) / RFU MAGEB2 (11727129_at) / Fold change /veh MAGEB2 (11727129_at) / RFU TMEM200A (11744735_a_at) / Fold change /veh TMEM200A (11744735_a_at) / RFU CCDC152 (11751479_a_at) / Fold change /veh CCDC152 (11751479_a_at) / RFU FAM211A (11726209_a_at) / Fold change /veh FAM211A (11726209_a_at) / RFU RGS16 (11746705_a_at) / Fold change /veh RGS16 (11746705_a_at) / RFU VCAN (11755009_s_at) / Fold change /veh VCAN (11755009_s_at) / RFU RHOB (11743442_s_at) / Fold change /veh RHOB (11743442_s_at) / RFU RGS16 (11720943_a_at) / Fold change /veh RGS16 (11720943_a_at) / RFU RGS16 (11720944_at) / Fold change /veh RGS16 (11720944_at) / RFU, VPS4B / Fold change vs veh, VPS4B / RFU, CREB1 / Fold change vs veh, CREB1 / RFU, DNAJC13 / Fold change vs veh, DNAJC13 / RFU, GNAQ / Fold change vs veh, GNAQ / RFU, CDK5R1 / Fold change vs veh, CDK5R1 / RFU, ZRANB3 / Fold change vs veh, ZRANB3 / RFU, CUL4A / Fold change vs veh, CUL4A / RFU, CCNY / Fold change vs veh, CCNY / RFU, UFL1 / Fold change vs veh, UFL1 / RFU, COG3 / Fold change vs veh, COG3 / RFU, DIAPH2 / Fold change vs veh, DIAPH2 / RFU, SKA2 / Fold change vs veh, SKA2 / RFU, AFF3 / Fold change vs veh, AFF3 / RFU, LMF1 / Fold change vs veh, LMF1 / RFU, IPO11 / Fold change vs veh, IPO11 / RFU, DFFB / Fold change vs veh, DFFB / RFU, FOXP1 / Fold change vs veh, FOXP1 / RFU, CARD8 / Fold change vs veh, CARD8 / RFU, STRN3 / Fold change vs veh, STRN3 / RFU, ADK / Fold change vs veh, ADK / RFU, RASSF2 / Fold change vs veh, RASSF2 / RFU, WIPF1 / Fold change vs veh, WIPF1 / RFU, LARP1B / Fold change vs veh, LARP1B / RFU, RASA1 / Fold change vs veh, RASA1 / RFU, RB1 / Fold change vs veh, RB1 / RFU, PPFIA1 / Fold change vs veh, PPFIA1 / RFU, MAT2A / Fold change vs veh, MAT2A / RFU, CCT5 / Fold change vs veh, CCT5 / RFU, WDR92 / Fold change vs veh, WDR92 / RFU, CUX1 / Fold change vs veh, CUX1 / RFU, TTC7A / Fold change vs veh, TTC7A / RFU, TMEM135 / Fold change vs veh, TMEM135 / RFU, DEPTOR / Fold change vs veh, DEPTOR / RFU, CPM / Fold change vs veh, CPM / RFU, DNAJB6 / Fold change vs veh, DNAJB6 / RFU, CACNA2D3 / Fold change vs veh, CACNA2D3 / RFU, DTX4 / Fold change vs veh, DTX4 / RFU, TFCP2 / Fold change vs veh, TFCP2 / RFU, GMCL1 /// GMCL1P1 / Fold change vs veh, GMCL1 /// GMCL1P1 / RFU, AEBP2 / Fold change vs veh, AEBP2 / RFU, SNHG1 /// SNORD22 /// SNORD25 /// SNORD26 /// SNORD27 /// SNORD28 /// SNORD29 /// SNORD31 / Fold change vs veh, SNHG1 /// SNORD22 /// SNORD25 /// SNORD26 /// SNORD27 /// SNORD28 /// SNORD29 /// SNORD31 / Fold change (Aza/veh), C12orf56 (ProbeSet 11735607_a_at) / Fold change (ACY-1035/veh), C12orf56 (ProbeSet 11735607_a_at) / Fold change (Aza/veh), FGFR1OP (ProbeSet 11751329_s_at) / Fold change (ACY-1035/veh), FGFR1OP (ProbeSet 11751329_s_at) / Fold change (Aza/veh), VPS36 (ProbeSet 11739960_a_at) / Fold change (ACY-1035/veh), VPS36 (ProbeSet 11739960_a_at) / RFU SYPL1 (11715823_x_at) / Fold change /veh SYPL1 (11715823_x_at) / RFU IGFBP7 (11715501_s_at) / Fold change /veh IGFBP7 (11715501_s_at) / RFU REEP3 (11722064_at) / Fold change /veh REEP3 (11722064_at) / RFU IGLL1 (11728026_x_at) / Fold change /veh IGLL1 (11728026_x_at): dose or concentration left out as unconfirmed. The format is cell-based, human.

For the compound `Nc1ncn([C@@H]2O[C@H](CO)[C@@H](O)[C@H]2O)c(=O)n1` [azacitidine], the “Fold change vs veh, C9orf123” value was 1.12.
